Columns and labels:
[1] = Particle size determination (Hiac/Royco system); format: physicochemical; settings: production lot used for FIG. 1 tablets
Procedure: Particle size can be determined by various methods known to those in the art, such as, but not limited to, laser particle size detectors. Particle size, as defined herein, is determined using a Hiac/Royco system, which includes the Model 9064 particle counter and the Model 3000A liquid syringe sampler (11801 Tech Road, Silver Spring, Md. 20904, U.S.A.).
Particle size was determined using a Hiac/Royco system, which includes the Model 9064 particle counter and the Model 3000A liquid syringe sampler (11801 Tech Road, Silver Spring, Md. 20904, U.S.A.). Samples were prepared in water saturated with modafinil. For each sample preparation, five consecutive readings were measured. The test was done in triplicate and the average was reported.

mice = settings: single administration (Duteil et al.); cited from earlier work
monkeys = settings: single administration (Duteil et al.); cited from earlier work

SMILES: NC(=O)C[S+]([O-])C(c1ccccc1)c1ccccc1 (stereo not shown) [modafinil, 2-(benzhydrylsulfinyl)acetamide]
- median particle size ([1]; pretreated modafinil particles): 148 μm
- diameter exceeded by 5% of the total of pretreated modafinil particles [1]: 277 μm
- locomotor activity (mice): increased locomotor activity
- nocturnal activity (monkeys): increased nocturnal activity

Reference: US20040253308A1, “Surface-treated modafinil particles” (Barr Laboratories, Inc., priority 2003, published 2004)
